# System: MV-4-11 cells
# Test: Gene expression microarray analysis (Affymetrix PrimeView) and GSEA
# Assay type: cell-based, human
# Design: RFU PODN (11730768_x_at) / Fold change /veh PODN (11730768_x_at) / RFU LINC00158 (11744669_a_at) / Fold change /veh LINC00158 (11744669_a_at) / RFU DUSP10 (11751237_a_at) / Fold change /veh DUSP10 (11751237_a_at) / RFU ID3 (11757404_x_at) / Fold change /veh ID3 (11757404_x_at) / RFU PLEKHG5 (11737974_s_at) / Fold change /veh PLEKHG5 (11737974_s_at) / RFU LRRC4B (11730491_at) / Fold change /veh LRRC4B (11730491_at) / RFU GIMAP4 (11747438_a_at) / Fold change /veh GIMAP4 (11747438_a_at) / RFU KRT8 (11758183_x_at) / Fold change /veh KRT8 (11758183_x_at) / RFU CNN1 (11734310_a_at) / Fold change /veh CNN1 (11734310_a_at) / RFU VPS37D (11726825_at) / Fold change /veh VPS37D (11726825_at) / RFU C10orf10 (11716522_x_at) / Fold change /veh C10orf10 (11716522_x_at) / RFU KIR2DL2 /// KIR2DL4 /// KIR2DL5A /// KIR2DL5B /// KIR2DS1 /// KIR2DS2 /// KIR2DS3 /// KIR2DS4 /// KIR3DL3 /// KIR3DL3 /// KIR3DS1 (11738374_at) / Fold change /veh KIR2DL2 /// KIR2DL4 /// KIR2DL5A /// KIR2DL5B /// KIR2DS1 /// KIR2DS2 /// KIR2DS3 /// KIR2DS4 /// KIR3DL3 /// KIR3DL3 /// KIR3DS1 (11738374_at) / RFU C1QL1 (11718748_at) / Fold change /veh C1QL1 (11718748_at) / RFU TMPRSS4 (11747572_a_at) / Fold change /veh TMPRSS4 (11747572_a_at) / RFU HAMP (11756126_x_at) / Fold change /veh HAMP (11756126_x_at) / RFU RNFT2 (11725882_a_at) / Fold change /veh RNFT2 (11725882_a_at) / RFU NR4A2 (11747474_a_at) / Fold change /veh NR4A2 (11747474_a_at) / RFU ABCC12 (11746883_a_at) / Fold change /veh ABCC12 (11746883_a_at) / RFU TMEM136 (11760407_x_at) / Fold change /veh TMEM136 (11760407_x_at) / RFU CLDN22 /// WWC2 (11732394_at) / Fold change /veh CLDN22 /// WWC2 (11732394_at) / RFU HLA-DPB1 (11760878_x_at) / Fold change /veh HLA-DPB1 (11760878_x_at) / RFU SPINT1 (11716480_a_at) / Fold change /veh SPINT1 (11716480_a_at) / RFU GAP43 (11754022_s_at) / Fold change /veh GAP43 (11754022_s_at) / RFU A4GNT (11735810_at) / Fold change /veh A4GNT (11735810_at) / RFU PRB3 (11715151_x_at) / Fold change /veh PRB3 (11715151_x_at) / RFU TUBB4B (11761932_at) / Fold change /veh TUBB4B (11761932_at) / RFU CAPN14 (11732068_a_at) / Fold change /veh CAPN14 (11732068_a_at) / RFU TMCC2 (11721928_a_at) / Fold change /veh TMCC2 (11721928_a_at) / RFU IRGQ (11745062_a_at) / Fold change /veh IRGQ (11745062_a_at) / RFU FAM174B (11720279_a_at) / Fold change /veh FAM174B (11720279_a_at) / RFU TMPRSS4 (11748680_a_at) / Fold change /veh TMPRSS4 (11748680_a_at) / RFU FAM212B (11763350_a_at) / Fold change /veh FAM212B (11763350_a_at) / RFU PLEKHG5 (11743358_a_at) / Fold change /veh PLEKHG5 (11743358_a_at) / RFU ZSCAN30 (11745921_a_at) / Fold change /veh ZSCAN30 (11745921_a_at) / RFU CMKLR1 (11741424_a_at) / Fold change /veh CMKLR1 (11741424_a_at) / RFU LOC101060620 /// MAPK8IP1 (11723275_at) / Fold change /veh LOC101060620 /// MAPK8IP1 (11723275_at) / RFU SPTSSB (11747773_x_at) / Fold change /veh SPTSSB (11747773_x_at) / RFU PRSS12 (11739890_at) / Fold change /veh PRSS12 (11739890_at) / RFU BIN1 (11741810_x_at) / Fold change /veh BIN1 (11741810_x_at) / RFU WNT11 (11732464_a_at) / Fold change /veh WNT11 (11732464_a_at) / RFU C10orf10 (11716521_a_at) / Fold change /veh C10orf10 (11716521_a_at) / RFU C5orf56 (11738089_at) / Fold change /veh C5orf56 (11738089_at) / RFU CYB561 (11721691_x_at) / Fold change /veh CYB561 (11721691_x_at) / RFU ANKRD19P (11752326_a_at) / Fold change /veh ANKRD19P (11752326_a_at) / RFU OR2T12 /// OR2T33 /// OR2T8 (11738714_s_at) / Fold change /veh OR2T12 /// OR2T33 /// OR2T8 (11738714_s_at) / RFU VCAN (11748164_a_at) / Fold change /veh VCAN (11748164_a_at) / RFU JSRP1 (11732532_at) / Fold change /veh JSRP1 (11732532_at) / RFU KRTAP10-11 (11738290_x_at) / Fold change /veh KRTAP10-11 (11738290_x_at) / RFU MYO3A (11730013_a_at) / Fold change /veh MYO3A (11730013_a_at) / RFU EBF3 (11725865_a_at) / Fold change /veh EBF3 (11725865_a_at) / RFU CAMK2N1 (11719241_x_at) / Fold change /veh CAMK2N1 (11719241_x_at) / RFU C5orf56 (11738088_a_at) / Fold change /veh C5orf56 (11738088_a_at) / RFU OLFML3 (11715873_a_at) / Fold change /veh OLFML3 (11715873_a_at) / RFU LOC100653217 /// NTM (11731650_a_at) / Fold change /veh LOC100653217 /// NTM (11731650_a_at) / RFU MAPK11 (11762145_a_at) / Fold change /veh MAPK11 (11762145_a_at) / RFU FIZ1 (11724087_x_at) / Fold change /veh FIZ1 (11724087_x_at) / RFU OASL (11726364_x_at) / Fold change /veh OASL (11726364_x_at) / RFU SOX15 (11748057_x_at) / Fold change /veh SOX15 (11748057_x_at) / RFU CD79A (11719716_a_at) / Fold change /veh CD79A (11719716_a_at) / RFU HIST1H1D (11736915_at) / Fold change /veh HIST1H1D (11736915_at) / RFU CASKIN2 (11723855_a_at) / Fold change /veh CASKIN2 (11723855_a_at) / RFU LOC730098 (11760151_x_at) / Fold change /veh LOC730098 (11760151_x_at) / RFU OR4N2 (11742367_at) / Fold change /veh OR4N2 (11742367_at) / RFU PRRT2 (11749266_a_at) / Fold change /veh PRRT2 (11749266_a_at) / RFU SNX32 (11753110_a_at) / Fold change /veh SNX32 (11753110_a_at) / RFU CDHR5 (11726645_a_at) / Fold change /veh CDHR5 (11726645_a_at) / RFU RCAN1 (11760418_a_at) / Fold change /veh RCAN1 (11760418_a_at) / RFU FAM167A (11723789_a_at) / Fold change /veh FAM167A (11723789_a_at) / RFU FAM26E (11764081_at) / Fold change /veh FAM26E (11764081_at) / RFU ISYNA1 (11749810_s_at) / Fold change /veh ISYNA1 (11749810_s_at) / RFU ACY1 (11761880_at) / Fold change /veh ACY1 (11761880_at) / RFU 11764098_at / Fold change /veh 11764098_at / RFU SAMD14 (11745864_x_at) / Fold change /veh SAMD14 (11745864_x_at) / RFU NPB (11741838_a_at) / Fold change /veh NPB (11741838_a_at) / RFU TMPRSS6 (11731388_a_at) / Fold change /veh TMPRSS6 (11731388_a_at) / RFU KRTAP10-2 (11738614_at) / Fold change /veh KRTAP10-2 (11738614_at) / RFU ARHGAP8 /// PRR5-ARHGAP8 (11727945_x_at) / Fold change /veh ARHGAP8 /// PRR5-ARHGAP8 (11727945_x_at) / RFU KRTAP5-7 /// NADSYN1 (11734609_at) / Fold change /veh KRTAP5-7 /// NADSYN1 (11734609_at) / RFU RASL12 (11751679_a_at) / Fold change /veh RASL12 (11751679_a_at) / RFU CDKN2B (11736163_a_at) / Fold change /veh CDKN2B (11736163_a_at) / RFU PRF1 (11729649_at) / Fold change /veh PRF1 (11729649_at) / RFU, ZNF638 /// ZNF638-IT1 / Fold change vs veh, ZNF638 /// ZNF638-IT1 / RFU, PANK3 / Fold change vs veh, PANK3 / RFU, SH3YL1 / Fold change vs veh, SH3YL1 / RFU, ZEB2 / Fold change vs veh, ZEB2 / RFU, NRIP1 / Fold change vs veh, NRIP1 / RFU, PTTG1IP / Fold change vs veh, PTTG1IP / RFU, CAPN2 / Fold change vs veh, CAPN2 / RFU, MED14 / Fold change vs veh, MED14 / RFU, SNORA58 / Fold change vs veh, SNORA58 / RFU, C1orf63 / Fold change vs veh, C1orf63 / RFU, LRRFIP1 / Fold change vs veh, LRRFIP1 / RFU, NDUFAF7 / Fold change vs veh, NDUFAF7 / RFU, SLC12A2 / Fold change vs veh, SLC12A2 / RFU, IBTK / Fold change vs veh, IBTK / RFU, ESF1 / Fold change vs veh, ESF1 / Fold change vs veh, TMEM50B / RFU, TAOK1 / Fold change vs veh, TAOK1 / RFU, ACBD3 / Fold change vs veh, ACBD3 / RFU, TMA16 / Fold change vs veh, TMA16 / RFU, RWDD3 / Fold change vs veh, RWDD3 / RFU, BCAT1 / Fold change vs veh, BCAT1 / RFU, EDEM3 / Fold change vs veh, EDEM3 / RFU, TMEM33 / Fold change vs veh, TMEM33 / RFU, WDR75 / Fold change vs veh, WDR75 / RFU, AHCTF1 / Fold change vs veh, AHCTF1 / RFU, TFRC / Fold change vs veh, TFRC / RFU, ZDHHC17 / Fold change vs veh, ZDHHC17 / RFU, NOM1 / Fold change vs veh, NOM1 / RFU, ARL8B / Fold change vs veh, ARL8B / RFU, ZBTB11 / Fold change vs veh, ZBTB11 / RFU, TAMM41 / Fold change vs veh, TAMM41 / RFU, KIAA1704 /// LOC100996395 / Fold change vs veh, KIAA1704 /// LOC100996395 / RFU, ING1 / Fold change vs veh, ING1 / RFU, TRMT61B / Fold change vs veh, TRMT61B / RFU, FUBP3 / Fold change vs veh, FUBP3 / RFU, TP53 / Fold change vs veh, TP53 / RFU, TNKS2 / Fold change vs veh, TNKS2 / RFU, ZFP14 / Fold change vs veh, ZFP14 / RFU, ACTR2 / Fold change vs veh, ACTR2 / RFU, PPP3R1 / Fold change vs veh, PPP3R1 / RFU, PIK3R1 / Fold change vs veh, PIK3R1 / RFU, HNRNPA1 / Fold change vs veh, HNRNPA1 / RFU, RNF170 / Fold change vs veh, RNF170 / RFU, ZNF28 / Fold change vs veh, ZNF28 / RFU, RNGTT / Fold change vs veh, RNGTT / RFU, OGT / Fold change vs veh, OGT / RFU, BRD1 / Fold change vs veh, BRD1 / RFU, MARS / Fold change vs veh, MARS / RFU, ZNF655 / Fold change vs veh, ZNF655 / RFU, FAHD1 / Fold change vs veh, FAHD1 / RFU, BDP1 / Fold change vs veh, BDP1 / RFU, LRRCC1 / Fold change vs veh, LRRCC1 / RFU, ARID1A / Fold change vs veh, ARID1A / RFU, ZNF146 / Fold change vs veh, ZNF146 / RFU, ZNF330 / Fold change vs veh, ZNF330 / RFU, GPN3 / Fold change vs veh, GPN3 / RFU, C9orf123 / Fold change vs veh, C9orf123 / RFU, N4BP2L2 / Fold change vs veh, N4BP2L2 / RFU, ARFIP1 / Fold change vs veh, ARFIP1 / RFU, FAM179B / Fold change vs veh, FAM179B / RFU, BCL10 / Fold change vs veh, BCL10 / RFU, UHRF1BP1L / Fold change vs veh, UHRF1BP1L / RFU, BET1 / Fold change vs veh, BET1 / RFU, CNOT2 / Fold change vs veh, CNOT2 / RFU, ZNF268 / Fold change vs veh, ZNF268 / Fold change vs veh, ZNF507 / RFU, DGCR2 / Fold change vs veh, DGCR2 / RFU, WDSUB1 / Fold change vs veh, WDSUB1 / Fold change vs veh, HSP90B1 /// MIR3652 / RFU, ADSS / Fold change vs veh, ADSS / RFU, GK / Fold change vs veh, GK / RFU, ZNF148 / Fold change vs veh, ZNF148 / RFU, TAF9 / Fold change vs veh, TAF9 / RFU, SLC1A5 / Fold change vs veh, SLC1A5 / RFU, SLMO2 / Fold change vs veh, SLMO2 / RFU, ABCC4 / Fold change vs veh, ABCC4 / RFU, LOC101060439 /// RAP1B / Fold change vs veh, LOC101060439 /// RAP1B / RFU, RFX7 / Fold change vs veh, RFX7 / RFU, GTPBP10 / Fold change vs veh, GTPBP10 / RFU, CNEP1R1 / Fold change vs veh, CNEP1R1 / RFU, BIVM-ERCC5 /// ERCC5 / Fold change vs veh, BIVM-ERCC5 /// ERCC5 / RFU, ILF3 / Fold change vs veh, ILF3 / RFU 11762660_at / Fold change /veh 11762660_at / RFU VCAN (11757783_s_at) / Fold change /veh VCAN (11757783_s_at) / RFU DDX43 (11728927_at) / Fold change /veh DDX43 (11728927_at) / RFU KRT8 (11758188_x_at) / Fold change /veh KRT8 (11758188_x_at) / RFU NKD1 (11759106_at) / Fold change /veh NKD1 (11759106_at) / RFU SRD5A1 (11742802_a_at) / Fold change /veh SRD5A1 (11742802_a_at) / RFU TPSAB1 /// TPSB2 (11721975_s_at) / Fold change /veh TPSAB1 /// TPSB2 (11721975_s_at) / RFU GSTM3 (11746129_a_at) / Fold change /veh GSTM3 (11746129_a_at) / RFU IL23R (11737362_x_at) / Fold change /veh IL23R (11737362_x_at) / RFU TMEM51 (11727254_a_at) / Fold change /veh TMEM51 (11727254_a_at) / RFU PIWIL2 (11732686_x_at) / Fold change /veh PIWIL2 (11732686_x_at) / RFU ORM1 (11744905_x_at) / Fold change /veh ORM1 (11744905_x_at) / RFU CCDC152 (11743942_at) / Fold change /veh CCDC152 (11743942_at) / RFU ECM1 (11717891_a_at) / Fold change /veh ECM1 (11717891_a_at) / RFU IL23R (11748794_a_at) / Fold change /veh IL23R (11748794_a_at) / RFU TNFAIP8L3 (11732012_x_at) / Fold change /veh TNFAIP8L3 (11732012_x_at) / RFU MBOAT4 (11741988_at) / Fold change /veh MBOAT4 (11741988_at) / RFU 11764193_at / Fold change /veh 11764193_at / RFU TMEM53 (11763286_at) / Fold change /veh TMEM53 (11763286_at) / RFU MAGEB2 (11727129_at) / Fold change /veh MAGEB2 (11727129_at) / RFU TMEM200A (11744735_a_at) / Fold change /veh TMEM200A (11744735_a_at) / RFU CCDC152 (11751479_a_at) / Fold change /veh CCDC152 (11751479_a_at) / RFU FAM211A (11726209_a_at) / Fold change /veh FAM211A (11726209_a_at) / RFU RGS16 (11746705_a_at) / Fold change /veh RGS16 (11746705_a_at) / RFU VCAN (11755009_s_at) / Fold change /veh VCAN (11755009_s_at) / RFU RHOB (11743442_s_at) / Fold change /veh RHOB (11743442_s_at) / RFU RGS16 (11720943_a_at) / Fold change /veh RGS16 (11720943_a_at) / RFU RGS16 (11720944_at) / Fold change /veh RGS16 (11720944_at) / RFU, VPS4B / Fold change vs veh, VPS4B / RFU, CREB1 / Fold change vs veh, CREB1 / RFU, DNAJC13 / Fold change vs veh, DNAJC13 / RFU, GNAQ / Fold change vs veh, GNAQ / RFU, CDK5R1 / Fold change vs veh, CDK5R1 / RFU, ZRANB3 / Fold change vs veh, ZRANB3 / RFU, CUL4A / Fold change vs veh, CUL4A / RFU, CCNY / Fold change vs veh, CCNY / RFU, UFL1 / Fold change vs veh, UFL1 / RFU, COG3 / Fold change vs veh, COG3 / RFU, DIAPH2 / Fold change vs veh, DIAPH2 / RFU, SKA2 / Fold change vs veh, SKA2 / RFU, AFF3 / Fold change vs veh, AFF3 / RFU, LMF1 / Fold change vs veh, LMF1 / RFU, IPO11 / Fold change vs veh, IPO11 / RFU, DFFB / Fold change vs veh, DFFB / RFU, FOXP1 / Fold change vs veh, FOXP1 / RFU, CARD8 / Fold change vs veh, CARD8 / RFU, STRN3 / Fold change vs veh, STRN3 / RFU, ADK / Fold change vs veh, ADK / RFU, RASSF2 / Fold change vs veh, RASSF2 / RFU, WIPF1 / Fold change vs veh, WIPF1 / RFU, LARP1B / Fold change vs veh, LARP1B / RFU, RASA1 / Fold change vs veh, RASA1 / RFU, RB1 / Fold change vs veh, RB1 / RFU, PPFIA1 / Fold change vs veh, PPFIA1 / RFU, MAT2A / Fold change vs veh, MAT2A / RFU, CCT5 / Fold change vs veh, CCT5 / RFU, WDR92 / Fold change vs veh, WDR92 / RFU, CUX1 / Fold change vs veh, CUX1 / RFU, TTC7A / Fold change vs veh, TTC7A / RFU, TMEM135 / Fold change vs veh, TMEM135 / RFU, DEPTOR / Fold change vs veh, DEPTOR / RFU, CPM / Fold change vs veh, CPM / RFU, DNAJB6 / Fold change vs veh, DNAJB6 / RFU, CACNA2D3 / Fold change vs veh, CACNA2D3 / RFU, DTX4 / Fold change vs veh, DTX4 / RFU, TFCP2 / Fold change vs veh, TFCP2 / RFU, GMCL1 /// GMCL1P1 / Fold change vs veh, GMCL1 /// GMCL1P1 / RFU, AEBP2 / Fold change vs veh, AEBP2 / RFU, SNHG1 /// SNORD22 /// SNORD25 /// SNORD26 /// SNORD27 /// SNORD28 /// SNORD29 /// SNORD31 / Fold change vs veh, SNHG1 /// SNORD22 /// SNORD25 /// SNORD26 /// SNORD27 /// SNORD28 /// SNORD29 /// SNORD31 / Fold change (Aza/veh), C12orf56 (ProbeSet 11735607_a_at) / Fold change (ACY-1035/veh), C12orf56 (ProbeSet 11735607_a_at) / Fold change (Aza/veh), FGFR1OP (ProbeSet 11751329_s_at) / Fold change (ACY-1035/veh), FGFR1OP (ProbeSet 11751329_s_at) / Fold change (Aza/veh), VPS36 (ProbeSet 11739960_a_at) / Fold change (ACY-1035/veh), VPS36 (ProbeSet 11739960_a_at) / RFU SYPL1 (11715823_x_at) / Fold change /veh SYPL1 (11715823_x_at) / RFU IGFBP7 (11715501_s_at) / Fold change /veh IGFBP7 (11715501_s_at) / RFU REEP3 (11722064_at) / Fold change /veh REEP3 (11722064_at) / RFU IGLL1 (11728026_x_at) / Fold change /veh IGLL1 (11728026_x_at): dose or concentration left out as unconfirmed
# Conditions: ProbeSet 11748670_a_at; LIST B
smiles,measurement,value
Nc1ncn([C@@H]2O[C@H](CO)[C@@H](O)[C@H]2O)c(=O)n1 [azacitidine],"RFU, PIK3R1",80.66 RFU

# Source: PMC5218480 (PLoS ONE, 2017)
